Read-outs that look alike come from different tables or passages of the source.
Tests used:
human CYP11B2 = target: T1, human CYP11B2 (Homo sapiens, UniProt P19099); experiment: G-402 cell enzyme experiment, CYP11B2 (aldosterone product, HTRF); format: cell-based; settings: G-402 cells stably expressing human CYP11B2, 1 µM 11-deoxycorticosterone, 16 h
T1 construct: The main elements of an expression plasmid include ORF of human CYP11B1 or human CYP11B2; expressed in transfected cells
T1 sequence (P19099 25-503): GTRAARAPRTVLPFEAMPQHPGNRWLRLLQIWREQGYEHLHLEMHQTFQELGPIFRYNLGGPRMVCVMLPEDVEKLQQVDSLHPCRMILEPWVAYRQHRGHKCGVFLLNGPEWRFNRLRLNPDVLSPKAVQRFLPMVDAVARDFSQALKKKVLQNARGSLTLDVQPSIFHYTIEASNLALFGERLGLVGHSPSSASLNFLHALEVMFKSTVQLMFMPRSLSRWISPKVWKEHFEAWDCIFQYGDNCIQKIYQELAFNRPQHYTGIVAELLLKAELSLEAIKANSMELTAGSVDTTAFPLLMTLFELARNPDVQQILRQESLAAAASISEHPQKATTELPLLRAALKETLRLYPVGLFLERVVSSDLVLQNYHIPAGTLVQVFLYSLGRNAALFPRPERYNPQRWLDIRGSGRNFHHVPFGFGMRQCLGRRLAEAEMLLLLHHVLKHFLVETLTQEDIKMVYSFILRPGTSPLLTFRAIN
Source text: (§1) G-402 cell line was used as host cells to express (by transient or stable transfection) an enzyme of the human CYP11 family. Specifically, G-402 cell lines stably expressing human CYP11B1 and human CYP11B2 were established respectively. […] Therefore, the G-402 cell line is very suitable as a host cell for the ectopic expression of an enzyme of the CYP11 family.
(§2) The G-402 cell line, originally derived from renal myoblastoma, can be obtained from ATCC (CRL-1440). The main elements of an expression plasmid include ORF of human CYP11B1 or human CYP11B2, a suitable promoter (CMV promoter), and a suitable resistance marker (neomycin). The expression plasmid was transfected into G-402 cells by standard technology, and a specific antibiotic was then given for screening. The activity of the enzyme expressed by the screened monoclonal cells was assessed by 11-deoxycorticosterone (substrate of CYP11B2) and 11-deoxycortisol (substrate of CYP11B1).
(§3) The G-402 cells expressing CYP11 plasmid, as established in the above solution, were cultured in McCoy's 5a Modified Medium (ATCC Catalog No. 30-2007) containing 10% FCS and 400 µg/ml G418 in an incubator at 37°C and 5% CO2. A cell enzyme experiment was carried out using DMEM/F12 medium containing 2.5% charcoal-treated FBS and an appropriate concentration of a substrate (1 µM 11-deoxycorticosterone or 1 µM 11-deoxycortisol). In order to detect the activity of the enzyme in the cells, the cells were plated in a 96-well plate and incubated for 16 h. The supernatant was then transferred and analyzed for the concentration of the expected product (the product of CYP11B2: aldosterone; the product of CYP11B1: cortisol). The concentrations of these products were determined by an HTRF experiment of CisBio.
(§4) In the cell enzyme experiment, the inhibitory effect of the test compound on the generated product can reflect the inhibitory effect thereof on the enzyme. The dose-dependent inhibition of the enzyme activity by the compound was calculated by plotting the concentration of the test compound (x axis) versus the measured product level (y axis). Then, the original data was fitted to a 4-parameter sigmoidal function (Morgan-Mercer-Flodin, MMF model) by least square method: y = (AB + Cx^D) / (B + x^D) in which A is the maximum y value, B is the EC50 determined by XLFit, C is the minimum y value, and D is the slope value. The maximum value A corresponds to the amount of the product detected without an inhibitor, and C corresponds to the amount of the product detected in the G402 cells expressing an empty plasmid.
(§5) The EC50 value of the compound of the present invention was determined by the above G-402 experiment system. The activity of the CYP11B2 enzyme was determined under the conditions of 1 µM 11-deoxycorticosterone and a variable amount of the inhibitor, and the activity of the CYP11B1 enzyme was determined under the conditions of 1 µM 11-deoxycortisol and a variable amount of the inhibitor.

human CYP11B1 = target: T2, human CYP11B1 (Homo sapiens, UniProt P15538); experiment: G-402 cell enzyme experiment, CYP11B1 (cortisol product, HTRF), selectivity versus CYP11B2; format: cell-based; settings: human selective factor: ratio of CYP11B1 EC50 to CYP11B2 EC50; G-402 cells
T2 construct: The main elements of an expression plasmid include ORF of human CYP11B1 or human CYP11B2; expressed in transfected cells
T2 sequence (P15538 25-503): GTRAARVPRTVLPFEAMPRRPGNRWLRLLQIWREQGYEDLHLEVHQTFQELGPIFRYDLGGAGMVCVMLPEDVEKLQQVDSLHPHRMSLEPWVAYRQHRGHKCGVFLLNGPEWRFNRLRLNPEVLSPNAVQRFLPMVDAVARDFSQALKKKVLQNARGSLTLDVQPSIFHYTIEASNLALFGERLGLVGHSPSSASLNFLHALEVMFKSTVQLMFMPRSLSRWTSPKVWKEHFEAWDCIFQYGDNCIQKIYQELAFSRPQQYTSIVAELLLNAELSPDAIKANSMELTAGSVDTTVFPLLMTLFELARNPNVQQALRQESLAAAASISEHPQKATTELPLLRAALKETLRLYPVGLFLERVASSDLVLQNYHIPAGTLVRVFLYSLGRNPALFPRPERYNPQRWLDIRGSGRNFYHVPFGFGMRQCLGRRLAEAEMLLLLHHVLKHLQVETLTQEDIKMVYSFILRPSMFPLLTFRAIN
Source text: as §1, §2, §3, §4, §5

[1] = Pharmacokinetic determination in rats; format: in vivo; settings: rat, male SD rats, plasma, oral administration (PO) 5 mg/kg; for MRT inf: read-out: MRT0-∞
Description: SD rats were used as test animals to study the pharmacokinetic behavior of the compounds of the present invention in rats (plasma) after oral administration.
3 SD rats per group, male.
Formulation of drug for oral administration: 0.5% CMC-Na (1% Tween 80)
5 g of sodium carboxymethyl cellulose (CMC-Na, viscosity: 800-1200 Cps) was weighed and dissolved in 1000 mL of purified water, and 10 g of Tween 80 was added. These materials were uniformly mixed to form a clear solution.
The example compounds were weighed and dissolved in the solution and the mixture was shaken well and ultrasonicated for 15 min to obtain a colorless clear solution with a concentration of 0.5 mg/mL. Formulation of drug for intravenous administration: 5% DMSO + 10% Solutol HS15 + 85% PBS
After overnight fasting, 3 male SD rats per group were administered orally (PO) at a dose of 5 mg/kg with an administration volume of 10 mL/kg. […]
0.2 mL of blood was collected from the jugular vein of the experimental animals before administration and at 0.25 h, 0.5 h, 1.0 h, 2.0 h, 4.0 h, 6.0 h, 8.0 h, and 24.0 h after administration and placed in an EDTA-2K test tube, and the test tube was centrifuged at 8000 rpm for 6 min at 4°C to separate the plasma, which was stored at -80°C; and the animals were fed 4 h after administration.
3 Experimental results: The final determination results were obtained by using LCMS/MS method.

COCC(=O)N1CC2(C1)CN(c1cncc(-c3ccc4nc(OC)ccc4c3)c1)C2 [Example 80, 2-methoxy-1-(6-(5-(2-methoxyquinolin-6-yl)pyridin-3-yl)-2,6-diazaspiro[3.3]heptan-2-yl)ethan-1-one]
EC50 (human CYP11B2): 17 nM

CCC(=O)NC1CCCc2c(-c3ccc4nc(OC)ccc4c3)cncc21 (centres unmarked) [Example 14-A]
EC50 (human CYP11B2): 24 nM

CCC(=O)NC1CC2(C1)CN(c1cncc(-c3ccc4nc(OC)ccc4c3)c1)C2 [Example 64, N-(2-(5-(2-methoxyquinolin-6-yl)pyridin-3-yl)-2-azaspiro[3.3]heptan-6-yl)propanamide]
EC50 (human CYP11B2): 32 nM

CN1C(=O)OCc2cc(-c3cncc(N4CC5(CN(C(=O)c6cnn(C)c6)C5)C4)c3)ccc21 [Example 5, 1-Methyl-6-(5-(6-(1-methyl-1H-pyrazole-4-carbonyl)-2,6-diazaspiro[3.3]heptan-2-yl)pyridin-3-yl)-1,4-dihydro-2H-benzo[d][1,3]oxazin-2-one]
hsF (human CYP11B1): > 1279x

Cn1cc(C(=O)N2CC(Oc3cncc(-c4ccc5c(ccc(=O)n5C)c4)c3)C2)cn1 [Example 98, 1-methyl-6-(5-((1-(1-methyl-1H-pyrazole-4-carbonyl)azetidin-3-yl)oxy)pyridin-3-yl)quinolin-2(1H)-one]
hsF (human CYP11B1): 2014x

Cn1c(=O)sc2cc(-c3cncc(N4CC5(CN(C(=O)C6(C#N)CC6)C5)C4)n3)ccc21 [Example 106, 1-(6-(6-(3-methyl-2-carbonyl-2,3-dihydrobenzo[d]thiazol-6-yl)pyrazin-2-yl)-2,6-diazaspiro[3.3]heptane-2-carbonyl)cyclopropane-1-carbonitrile]
hsF (human CYP11B1): 3103x

CN1C(=O)OCc2cc(-c3cncc(C4=CCN(S(=O)(=O)C5CC5)CC4)c3)ccc21 [Example 41, 6-(1'-(cyclopropylsulfonyl)-1',2',3',6'-tetrahydro-[3,4'-bipyridine]-5-yl)-1-methyl-1,4-dihydro-2H-benzo[d][1,3]oxazin-2-one]
hsF (human CYP11B1): 394x

CCC(=O)N[C@H]1c2cncc(-c3ccc4c(c3)sc(=O)n4C)c2C2CC21 (stereo partly drawn) [Example 66-P2, N-((6R)-4-(3-methyl-2-oxo-2,3-dihydrobenzo[d]thiazol-6-yl)-4b,5,5a,6-tetrahydrocyclopropyl[3,4]cyclopenta[1,2-c]pyridin-6-yl)propanamide]
hsF (human CYP11B1): > 1471x

CCC(=O)N[C@@H]1CCCc2c(-c3ccc4c(c3)COC(=O)N4C)cncc21 [Example 1-A]
hsF (human CYP11B1): 144x
AUC(0-inf) [1]: 27700 ng·h/mL
AUC(0-t) [1]: 27600 ng·h/mL
Cmax [1]: 6330 ng/mL
Tmax [1]: 1 h
half-life [1]: 2.6 h
MRT inf [1]: 3.7 h

Cn1cc(C(=O)N2CC3(C2)CN(c2cncc(-c4ccc5c(c4)sc(=O)n5C)c2)C3)cn1 [Example 67, 3-methyl-6-(5-(6-(1-methyl-1H-pyrazole-4-carbonyl)-2,6-diazaspiro[3.3]heptan-2-yl)pyridin-3-yl)benzo[d]thiazol-2(3H)-one]
hsF (human CYP11B1): > 485x
AUC(0-inf) [1]: 31400 ng·h/mL
AUC(0-t) [1]: 31400 ng·h/mL
Cmax [1]: 4910 ng/mL
Tmax [1]: 4 h
half-life [1]: 2 h
MRT inf [1]: 3.9 h

Cn1c(=O)sc2cc(-c3cncc(N4CC5(CN(C(=O)C6(C#N)CC6)C5)C4)c3)ccc21 [Example 105, 1-(6-(5-(3-methyl-2-carbonyl-2,3-dihydrobenzo[d]thiazol-6-yl)pyridin-3-yl)-2,6-diazaspiro[3.3]heptane-2-carbonyl)cyclopropane-1-carbonitrile]
hsF (human CYP11B1): 1372x
AUC(0-inf) ([1]; in vivo): 66500 ng·h/mL
AUC(0-t) ([1]; in vivo): 60400 ng·h/mL
Cmax ([1]; in vivo): 6040 ng/mL
Tmax ([1]; in vivo): 4 h
half-life ([1]; in vivo): 7 h
MRT inf ([1]; in vivo): 9.6 h

Cn1cc(C(=O)N2CC3(C2)CN(c2cncc(-c4ccc5c(ccc(=O)n5C)c4)c2)C3)cn1 [Example 69, 1-methyl-6-(5-(6-(1-methyl-1H-pyrazole-4-carbonyl)-2,6-diazaspiro[3.3]heptan-2-yl)pyridin-3-yl)quinolin-2(1H)-one]
hsF (human CYP11B1): 585x

Cn1cc(C(=O)N2CC(Oc3cncc(-c4ccc5c(c4)sc(=O)n5C)n3)C2)cn1 [Example 99, 3-methyl-6-(6-((1-(1-methyl-1H-pyrazole-4-carbonyl)azetidin-3-yl)oxy)pyrazin-2-yl)benzo[d]thiazol-2(3H)-one]
hsF (human CYP11B1): > 3509x

CN(c1cncc(-c2ccc3c(ccc(=O)n3C)c2)c1)C1CN(C(=O)c2cnn(C)c2)C1 [Example 74, 1-methyl-6-(5-(methyl(1-(1-methyl-1H-pyrazole-4-carbonyl)azetidin-3-yl)amino)pyridin-3-yl)quinolin-2(1)-one]
hsF (human CYP11B1): 371x

CN1C(=O)C2CC2c2cc(-c3cncc(N4CC5(CN(C(=O)c6cnn(C)c6)C5)C4)c3)ccc21 (centres unmarked) [Example 75, 3-methyl-6-(5-(6-(1-methyl-1H-pyrazole-4-carbonyl)-2,6-diazaspiro[3.3]heptan-2-yl)pyridin-3-yl)-1,1a,3,7b-tetrahydro-2H-cyclopropa[c]quinolin-2-one]
hsF (human CYP11B1): > 16666x

6-(5-(2-ethoxyquinolin-6-yl)pyridin-3-yl)-2,6-diazaspiro[3.3]heptan-2-yl)(1-(methyl-d3)-1H-pyrazol-4-yl)methanone [Example 42]
hsF (human CYP11B1): 393x

CC(=O)N[C@@H]1CCCc2c(-c3cnc4c(c3)CCC(=O)N4C)cncc21 [Example 59, (R)-N-(4-(8-methyl-7-carbonyl-5,6,7,8-tetrahydro-1,8-diazanaphthalen-3-yl)-5,6,7,8-tetrahydroisoquinolin-8-yl)acetamide]
hsF (human CYP11B1): > 388x
